In patent publication US20200030414A1, “THERAPEUTIC AGENT FOR SHORT STATURE” (Daiichi Sankyo Company, Limited, priority 2017, published 2020):
Where a SMILES comes first, the peptide text is derived from it. Bridges are numbered along the chain shown (N, C = ends). Where no end group is shown, it is not given here.

Experiments:
[1] = Body length after 7-day repeated or continuous subcutaneous administration (Example 2); format: in vivo, rat; conditions: for Body length (from mouth to end of tail): male SD rat
Protocol: A dosing solution of the CNP derivative (A) or (B) was repeatedly subcutaneously administered at doses of 0.005, 0.015, 0.05, 0.15 and 0.5 mg/kg/day once a day for 7 days to 7-week-old male Crl:CD (SD) rats, or charged in an osmotic pump (MINI-OSMOTIC PUMP Model 2002, manufactured by DURECT Corp., flow rate: 0.5 μL/hr, for 14-day use), implanted in the backs of rats, and continuously subcutaneously administered at these doses for 7 days. Their body lengths (from the mouth to the end of the tail) were measured before the start of administration and 8 days after the start of administration.

[2] = Estimated concentration in plasma during repeated subcutaneous administration with two vehicles (Example 3); format: in vivo, rat
[3] = Blood pressure lowering effect, 24-hour continuous intravenous administration, telemetry (Example 4); format: in vivo, cynomolgus monkey; set-up: Systolic blood pressure fluctuation range (maximum value %): unit not given here; conditions: for Systolic blood pressure fluctuation range (maximum value %): maximum value during administration period
Protocol: (§1) The CNP derivative (A) was continuously intravenously administered at doses of 0.015 to 0.1 mg/kg/day at a constant rate to telemetry transmitter-implanted cynomolgus monkeys (two males and two females), and studied for its influence on blood pressure (systolic, diastolic, and average blood pressures), heart rate, and an electrocardiographic parameter.

[4] = Concentration in plasma during 24-hour continuous intravenous administration (Example 4); format: in vivo, cynomolgus monkey; conditions: 0.1 mg/kg/day continuous i.v. 24 h, immediately before completion of administration
Protocol: as §1
[Table 3: Systolic blood pressure fluctuation range (maximum value during administration period) when CNP derivative (A) was continuously intravenously administered at constant rate for 24 hours to cynomolgus monkey, and concentration of CNP derivative (A) in plasma immediately before completion of administration

[5] = normal mice, continuous intravenous administration, increased bone length; cited from earlier work
NPR-B = conditions: Furuya et al. 1992; cited from earlier work
Sequence of NPR-B (P20594 23-1047, species assumed): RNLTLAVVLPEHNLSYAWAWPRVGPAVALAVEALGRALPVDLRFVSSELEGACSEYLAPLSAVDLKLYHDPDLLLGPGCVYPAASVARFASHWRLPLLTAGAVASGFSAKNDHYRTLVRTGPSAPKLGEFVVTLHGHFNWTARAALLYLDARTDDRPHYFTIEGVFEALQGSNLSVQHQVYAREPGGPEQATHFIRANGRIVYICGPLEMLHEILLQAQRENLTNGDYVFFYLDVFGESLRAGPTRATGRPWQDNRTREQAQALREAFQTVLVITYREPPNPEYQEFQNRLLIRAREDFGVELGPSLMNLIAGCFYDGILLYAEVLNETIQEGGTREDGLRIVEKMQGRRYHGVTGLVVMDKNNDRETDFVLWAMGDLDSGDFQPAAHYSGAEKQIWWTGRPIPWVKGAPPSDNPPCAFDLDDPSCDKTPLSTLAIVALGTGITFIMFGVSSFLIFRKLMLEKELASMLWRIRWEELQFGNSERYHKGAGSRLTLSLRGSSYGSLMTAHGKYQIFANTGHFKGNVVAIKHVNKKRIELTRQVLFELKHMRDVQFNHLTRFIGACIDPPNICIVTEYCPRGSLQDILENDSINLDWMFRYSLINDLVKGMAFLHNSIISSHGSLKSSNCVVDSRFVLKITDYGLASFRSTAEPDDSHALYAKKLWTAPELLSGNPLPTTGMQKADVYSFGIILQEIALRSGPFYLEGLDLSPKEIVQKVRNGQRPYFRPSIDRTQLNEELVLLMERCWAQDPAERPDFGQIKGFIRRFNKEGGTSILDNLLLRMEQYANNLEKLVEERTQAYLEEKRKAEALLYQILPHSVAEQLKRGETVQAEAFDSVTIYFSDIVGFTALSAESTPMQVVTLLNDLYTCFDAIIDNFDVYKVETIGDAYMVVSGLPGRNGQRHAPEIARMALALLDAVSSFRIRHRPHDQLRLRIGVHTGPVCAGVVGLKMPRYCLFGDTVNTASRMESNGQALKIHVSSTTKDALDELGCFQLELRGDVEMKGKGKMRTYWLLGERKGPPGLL

CNP derivative (B): derivative consisting of the amino acid sequence Pro-Gly-CNP-37 (SEQ ID NO: 4), from WO2009/067639, under clinical development for achondroplasia (PGQEHPNARKYKGANKKGLSKGCFGLKLDRIGSMSGLGC; CNP derivative D, which disclosed in Am. J. Hum. Gent.(2012), 91(6), 1108-1114)
bone growth effect per dose, continuous vs repeated subcutaneous administration ([1]; 7 days): stronger under continuous subcutaneous administration conditions
Body length (from mouth to end of tail) ([1]; continuous subcutaneous, 0.005 mg/kg/day, 7 days): 215.2 ± 3.5 ^NS mm
Body length (from mouth to end of tail) ([1]; continuous subcutaneous, 0.015 mg/kg/day, 7 days): 213.6 ± 4.4 ^NS mm
Body length (from mouth to end of tail) ([1]; continuous subcutaneous, 0.05 mg/kg/day, 7 days): 212.2 ± 5.2 ^NS mm
Body length (from mouth to end of tail) ([1]; continuous subcutaneous, 0.15 mg/kg/day, 7 days): 220.2 ± 4.3 mm
Body length (from mouth to end of tail) ([1]; continuous subcutaneous, 0.5 mg/kg/day, 7 days): 222.8 ± 3.5 mm
increase in body length (from the mouth to the end of the tail) ([1]; continuous subcutaneous, 7-day, doses of 0.15 mg/kg/day or higher): significant increase
effect on body length ([1]; repeated subcutaneous administration conditions, 7 days): no significant effect
Body length (from mouth to end of tail) ([1]; repeated subcutaneous, 0.005 mg/kg/day, 7 days): 211.8 ± 2.9 ^NS mm
Body length (from mouth to end of tail) ([1]; repeated subcutaneous, 0.015 mg/kg/day, 7 days): 213.2 ± 4.4 ^NS mm
Body length (from mouth to end of tail) ([1]; repeated subcutaneous, 0.05 mg/kg/day, 7 days): 214.4 ± 4.7 ^NS mm
Body length (from mouth to end of tail) ([1]; repeated subcutaneous, 0.15 mg/kg/day, 7 days): 211.3 ± 4.5 ^NS mm
Body length (from mouth to end of tail) ([1]; repeated subcutaneous, 0.5 mg/kg/day, 7 days): 215.2 ± 3.3 ^NS mm

CC[C@H](C)[C@@H]1NC(=O)[C@H](CCCNC(=N)N)NC(=O)[C@H](CC(=O)O)NC(=O)[C@H](CC(C)C)NC(=O)[C@H](CCCCN)NC(=O)[C@H](CC(C)C)NC(=O)CNC(=O)[C@H](Cc2ccccc2)NC(=O)[C@@H](NC(=O)CNC(=O)[C@H](CCCCN)NC(=O)[C@H](CO)NC(=O)[C@H](CC(C)C)NC(=O)CN)CSSC[C@@H](C(=O)N[C@H](C(=O)N[C@@H](CCC(N)=O)C(=O)N[C@@H](CCC(N)=O)C(=O)N[C@@H](CCCNC(=N)N)C(=O)N[C@@H](CCCCN)C(=O)N[C@@H](CC(=O)O)C(=O)N[C@@H](CO)C(=O)N[C@@H](CCCCN)C(=O)N[C@@H](CCCCN)C(=O)N2CCC[C@H]2C(=O)N2CCC[C@H]2C(=O)N[C@@H](C)C(=O)N[C@@H](CCCCN)C(=O)N[C@@H](CC(C)C)C(=O)N[C@@H](CCC(N)=O)C(=O)N2CCC[C@H]2C(=O)N[C@@H](CCCNC(=N)N)C(=O)O)C(C)C)NC(=O)CNC(=O)[C@H](CC(C)C)NC(=O)CNC(=O)[C@H](CO)NC(=O)[C@H](CCSC)NC(=O)[C@H](CO)NC(=O)CNC1=O [CNP derivative (A)] (H-GLSKGCFGLKLDRIGSMSGLGCVQQRKDSKKPPAKLQPR-OH; disulfide 6-22; N-terminus and C-terminus assumed)
estimated concentration in plasma ([2]; vehicle 1, 0.5 mg/kg s.c., 9 hours after administration): ≤ 0.1 ng/mL
estimated concentration in plasma ([2]; vehicle 1, 0.5 mg/kg s.c., immediately after administration): ≥ 200 ng/mL
peak concentration in plasma (estimated) ([2]; vehicle 2, 0.25 mg/kg s.c.): about 40 ng/mL
estimated concentration in plasma ([2]; vehicle 2, 0.25 mg/kg s.c., 12 hours after administration): ≥ 0.1 ng/mL
Systolic blood pressure fluctuation range (maximum value %) ([3]; 0.015 mg/kg/day continuous i.v. 24 h): −6.8
systolic blood pressure decrease ([3]; 0.05 mg/kg continuous i.v.): −11.0 mmHg
Systolic blood pressure fluctuation range (maximum value %) ([3]; 0.05 mg/kg/day continuous i.v. 24 h): −11.0
systolic blood pressure decrease ([3]; 0.1 mg/kg continuous i.v.): −20.5 mmHg
Systolic blood pressure fluctuation range (maximum value %) ([3]; 0.1 mg/kg/day continuous i.v. 24 h): −20.5
reflex tachycardia ([3]; concentration in plasma up to 9.8 ng/mL at its maximum): no symptom indicating reflex tachycardia was observed
concentration in plasma up to which reflex tachycardia is less likely to occur ([3]; elevated by continuous change): about 10 ng/mL
blood pressure lowering effect (systolic and average blood pressures), average of differences from pre-administration values ([3]; observed from 0.05 mg/kg): exceeding 10 mmHg
concentration in plasma at which the risk of developing decreased blood pressure is drastically reduced ([3]; waking cynomolgus monkeys): ≤ 4 ng/mL
Concentration in plasma [4]: 9.8 ng/mL

CNP-22
effective concentration in plasma [5]: 29.3 ng/mL

CNP6-22: peptide consisting of the ring structure, amino acid positions 6 to 22 of SEQ ID NO: 1 (CFGLKLDRIGSMSGLGC; disulfide 1-17 (inferred); listed as Homo sapiens)
NPR-B agonistic activity compared with hCNP-22 (NPR-B): almost equivalent to that of hCNP-22
